“Also recorded” adds a separate entry of the source.
Columns and labels:
TnaA = target: T1, TnaA (Escherichia coli, UniProt P0A853); assay: TnaA assay (in vitro, recombinant tryptophanase); type: biochemical, E. coli; settings: 0.1 μM purified TnaA, 0.5 mM substrate, 37° C., 10 min
T1 construct: made in house; host or cells: E. coli BL21-GOLD (DE3)
Experimental: The reactions contained 0.1 μM purified TnaA and 0.5 mM substrate and incubated at 37° C. for 10 min. No 4-nitro indole was produced in the enzyme reaction.
PCR amplicons were analyzed by agarose gel and extracted with GeneJET Gel Extraction Kit (Thermo). Purified PCR products and pET28b were digested with corresponding restriction enzymes, purified and then ligated to create expression constructs. Insert in the construct was sequenced to exclude potential errors introduced during PCR amplification and gene manipulation. Recombinant TnaA was prepared in E. coli BL21-GOLD (DE3). The enzyme assay (0.1 mL) contained 100 mM potassium phosphate buffer (pH 8.3), 0.2 mM pyridoxal 5-phosphate and 0.1 μM purified tnaA. The reaction mixtures were pre-warmed at 37° C. for 5 minutes, and initiated by adding 0.5 mM 1-Trp or Nitrotrp as substrate. After 10 minutes, the reactions were quenched by mixing well with 0.2 mL of methanol. After centrifugation at 14,000 rpm for 30 minutes, the supernatant was subject to HPLC analysis. All experiments were independently repeated at least twice.

[1] = system: E. coli BL21-GOLD (DE3) carrying Nitrotrp pathways (TB14, BsNOS, GDH); type: cell-based, Escherichia coli; settings: for nitration of fed analog by E. coli-II: 5 mM analog fed to fermentation medium of E. coli-II
[2] = system: E. coli BL21 Gold cells expressing TB14, BsNOS and GDH; assay: Whole-cell biotransformation (whole cell nitration system, Example 2/278); type: cell-based, Escherichia coli; settings: TB medium, analogue fed as substrate
Experimental: For analytical analysis, an HPLC column was kept at 40° C., water with 0.1% formic acid was used as solvent A and acetonitrile with 0.1% formic acid was used as solvent B. The column was eluted first with 1% solvent B for 1 min and then with a linear gradient of 1-20% solvent B in 8 min, followed by another linear gradient of 20-99% solvent B in 2 min. The column was further cleaned with 99% solvent B for 2 min and then re-equilibrated with 1% solvent B for 2 min. The flow rate was set as 1 ml/min, and the products were detected at […] with a PDA detector.
E. coli BL21 Gold cells containing pETDuet and pET28b derived plasmids were grown from glycerol stock overnight in 5 mL Luria broth with 0.1 mg/mL ampicillin and 0.05 mg/mL kanamycin (37° C., 250 rpm). The pre-culture was used to inoculate 100 mL of Terrific broth medium (0.1 mg/mL ampicillin and 0.05 mg/mL kanamycin) in a 500 mL flask; this culture was incubated at 37° C., 250 rpm to OD600=0.6-0.8. The cultures were cooled on water-ice mixture and induced with 0.5 mM IPTG, Expression was conducted at 18° C., 250 rpm, for 20 h. For the culture of E. coli BL21 Gold cells containing pACYCDuet and pET28b derived plasmids, 0.05 mg/mL chloramphenicol was used instead of 0.05 mg/mL kanamycin. The cultures were then harvested and resuspended to OD600=30 in test medium, Aliquots of the cell suspension were used in the whole cell transformation. To a test tube was added 5 mL cell suspension, 25 μL 100 mM L-Trp or L-Trp analogues, and 25 μL 100 mM L-Arg when necessary. The mixture was then incubated at different conditions. The reactions were quenched by adding equal volume of methanol and the resulting mixture was aliquoted and transferred to a microcentrifuge tube and centrifuged at 14,000 rpm for 10 minutes. The supernatant was transferred to an HPLC vial and analyzed by LC-MS.

T1 sequence (P0A853 whole entry): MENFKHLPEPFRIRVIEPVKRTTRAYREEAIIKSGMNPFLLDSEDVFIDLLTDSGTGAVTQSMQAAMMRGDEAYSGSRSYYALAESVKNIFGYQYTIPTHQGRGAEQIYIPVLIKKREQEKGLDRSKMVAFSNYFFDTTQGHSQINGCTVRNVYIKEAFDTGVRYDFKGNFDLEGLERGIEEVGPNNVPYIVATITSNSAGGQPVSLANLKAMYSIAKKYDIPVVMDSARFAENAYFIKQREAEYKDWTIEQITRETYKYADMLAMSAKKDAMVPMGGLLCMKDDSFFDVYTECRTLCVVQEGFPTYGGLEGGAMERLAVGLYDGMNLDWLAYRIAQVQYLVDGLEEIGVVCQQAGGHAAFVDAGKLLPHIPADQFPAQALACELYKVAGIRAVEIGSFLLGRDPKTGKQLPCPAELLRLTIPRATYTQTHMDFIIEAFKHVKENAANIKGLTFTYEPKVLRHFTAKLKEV

Compound	conversion/decomposition by recombinant TnaA (TnaA)	nitration of fed analog by E. coli-II [1]	nitration of tryptophan analogue by whole cell nitration system [2]	nitration activity of the strain toward substrate (rank) ([1]; 5 mM analog fed to E. coli-II)	conversion rates in whole cell-based nitration [2]
N[C@@H](Cc1c[nH]c2cccc([N+](=O)[O-])c12)C(=O)O [Nitrotrp]	does not convert; also recorded: not observed	–	–	–	–
Cc1cccc2c(C[C@H](N)C(=O)O)c[nH]c12 [Example 7-Me-Trp, 7-Me-Trp]	–	nitrated	successfully nitrated	–	–
Cc1ccc2[nH]cc(C[C@H](N)C(=O)O)c2c1 [Example 5-Me-Trp, 5-Me-Trp]	–	nitrated	successfully nitrated	highest nitration activity	highest conversion rates
COc1ccc2[nH]cc(C[C@H](N)C(=O)O)c2c1 [Example 5-MeO-Trp, 5-MeO-Trp]	–	nitrated	successfully nitrated	–	–
N[C@@H](Cc1c[nH]c2cccc(F)c12)C(=O)O [Example 4-F-Trp, 4-F-Trp]	–	nitrated	successfully nitrated	–	–
N[C@@H](Cc1c[nH]c2ccc(F)cc12)C(=O)O [Example 5-F-Trp, 5-F-Trp]	–	nitrated	successfully nitrated	–	highest conversion rates
Cc1cccc2[nH]cc(C[C@H](N)C(=O)O)c12 [Example 4-Me-Trp, 4-Me-Trp]	–	nitrated	successfully nitrated	–	highest conversion rates
N[C@@H](Cc1c[nH]c2cc(F)ccc12)C(=O)O [Example 6-F-Trp, 6-F-Trp]	–	nitrated	successfully nitrated	–	–
N[C@@H](Cc1c[nH]c2ccccc12)C(=O)O [L-Trp, L-tryptophan]	produced indole	–	–	–	–
C[C@](N)(Cc1c[nH]c2ccccc12)C(=O)O [α-Me-Trp]	–	nitrated	successfully nitrated	–	–
N[C@@H](Cc1c[nH]c2cccc([N+](=O)[O-])c12)C(=O)O [Example 4-NO2-L-Trp, 4-NO2-L-Trp]	not able to decompose	–	–	–	–

Reference: patent US12319946B2, “Methods for producing modified bacteria for production of nitroaromatics” (priority 2018, dated 2025)
